Source: patent US4555525A, “Use of desethyl-N-acetylprocainamide (NAPADE) as an inotropic agent” (Administrators of the Tulane Educational Fund, priority 1984, dated 1985)
“And” between values parts separate entries of the source, which are not always exact repeats. Identical values can stand only once. “Also recorded” adds a separate entry of the source. Like-named read-outs stand apart in the source and are kept apart here. Blank lines part the entries; values can stand above or below the compound they belong to.

Legend:
[1] = mice; cited from earlier work
[2] = system: β-adrenergic receptor; experiment: Cardiovascular effects of NAPADE after pretreatment with propranolol in anesthetized dogs; type: in vivo, dog (male mongrel)
Description: (§1) Myocardial force, mean arterial pressure and heart rate are expressed as the percent change from baseline for each experimental group. Statistical analysis was done with analysis of variance for repeated measurements and Duncan's multiple range test. All values are mean ± SEM.

[3] = NAPADE pharmacokinetics in chloralose-urethane anesthetized dogs (HPLC plasma levels, two-compartment model); type: in vivo, dog (male mongrel)
Experimental: Blood samples were obtained over a period of 5-120 minutes to measure NAPADE plasma concentration by high-performance liquid chromatography (HPLC) and to construct a plasma concentration versus time curve of FIG. 1.
The pharmacokinetics of NAPADE were analyzed with a two-compartment model with elimination from the central compartment. The method of residuals was used to resolve the exponential components of each plasma concentration versus time curve and to obtain estimates of alpha and beta (first-order rate constants) and A and B intercepts corrected to 0-time using the method of Loo and Reigelman. These parameters were then used to estimate apparent volume of distribution (V central, V peripheral, V total) and clearance values (Cl intercompartmental, Cl elimination) for each dog according to standard pharmacokinetic methodology.

[4] = system: cardiac muscle; experiment: Cardiovascular effects in chloralose-urethane anesthetized dogs (myocardial force, heart rate, mean arterial pressure); type: in vivo, dog (male mongrel)
Description: We have investigated the cardiovascular effects of NAPADE in animal models and have observed the following unique properties of NAPADE: […]
as §1

[5] = system: cardiac muscle; experiment: Cardiovascular effects of procainamide and NAPA, for comparison with NAPADE; type: in vivo; details: procainamide or NAPA; for effect on force of contraction of the heart muscle (inotropic effect): procainamide at 60 mg/kg i.v. as a 15 minute infusion, 60 mg/kg
[6] = system: cardiac muscle; experiment: NAPA effect after pretreatment with propranolol; type: in vivo
[7] = cited from earlier work
[8] = NAPADE-HCl 60 mg/kg IV after propranolol 0.5 mg/kg followed by 10 μg/kg/min
[9] = NAPADE-HCl 60 mg/kg, 15-minute IV infusion
[10] = individual dogs No. 1-8, one line per dog, NAPADE-HCl 60 mg/kg, 15-minute IV infusion, 60 mg/kg

apparent volume of distribution, NAPADE as a fraction of NAPA value ([3]; compared with NAPA from previous studies): approximately one-third | half-life ([3]; dog, plasma, iv, 60 mg/kg, individual dogs No. 1-8, one line per dog, NAPADE-HCl 60 mg/kg, 15-minute IV infusion, read-out: T1/2(BETA) (elimination half-life)): 55 min | half-life ([3]; dog, plasma, iv, 60 mg/kg, mean of 8 dogs (± SEM in text), NAPADE-HCl 60 mg/kg, 15-minute IV infusion, read-out: T1/2 beta (terminal / elimination half-life)): 54.5 ± 2.9 min | clearance ([3]; dog, plasma, iv, 60 mg/kg, mean of 8 dogs, NAPADE-HCl 60 mg/kg, 15-minute IV infusion, read-out: ClELIMINATION (elimination clearance)): 8.56 mL/min/kg | Vd ([3]; dog, plasma, iv, 60 mg/kg, mean of 8 dogs, NAPADE-HCl 60 mg/kg, 15-minute IV infusion, read-out: VCENTRAL (volume of the central compartment)): 0.153 L/kg | Vd ([3]; dog, plasma, iv, 60 mg/kg, mean of 8 dogs, NAPADE-HCl 60 mg/kg, 15-minute IV infusion, read-out: VTOTAL (total apparent volume of distribution)): 0.513 L/kg | Cmax at 0.25 h ([3]; dog, plasma, NAPADE-HCl 60 mg/kg, 15-minute IV infusion, at 15 minutes, mean ± SEM, read-out: peak NAPADE concentrations (plasma)): 165 ± 18.1 µg/mL | Tmax ([3]; dog, plasma, NAPADE-HCl 60 mg/kg, 15-minute IV infusion, read-out: time of peak plasma concentrations (converted)): 15 min | ClINTERC. (intercompartmental clearance) ([3]; mean of 8 dogs, NAPADE-HCl 60 mg/kg, 15-minute IV infusion): 15.46 mL/min/kg | ClELIMINATION (elimination clearance) ([3]; mean of 8 dogs, NAPADE-HCl 60 mg/kg, 15-minute IV infusion, 60 mg/kg): 8.56 ± 1.2 mL/min/kg
SMILES: CCNCCNC(=O)c1ccc(NC(C)=O)cc1 [NAPADE, Desethyl-N-acetylprocainamide]
antifibrillatory activity [1]: antifibrillatory activity | negative inotropic (myocardial depressant) effect after propranolol pretreatment ([2]; NAPADE in the presence of β-adrenergic receptor blockade with propranolol): lacks negative inotropic effects; also recorded: No such effect was seen | blood pressure effect after propranolol pretreatment [2, 8]: only a mild decrease in blood pressure; also recorded: seemed to potentiate the mild hypotensive actions; also recorded: potentiated the mild hypotensive actions | chronotropic action after propranolol pretreatment [2, 8]: abolishes the positive inotropic and chronotropic actions; also recorded: effectively blocked the positive inotropic and chronotropic actions | inotropic action after propranolol pretreatment [2, 8]: abolishes the positive inotropic and chronotropic actions; also recorded: effectively blocked the positive inotropic and chronotropic actions | decline of plasma concentrations / kinetics of elimination [3, 9]: declined in a bi-exponential fashion; also recorded: bi-exponential kinetics of elimination | ClINTERC. (intercompartmental clearance) ([3]; individual dogs No. 1-8, one line per dog, NAPADE-HCl 60 mg/kg, 15-minute IV infusion): 7.46 mL/min/kg and 9.99 mL/min/kg and 24.67 mL/min/kg and 9.91 mL/min/kg and 24.12 mL/min/kg and 22.45 mL/min/kg and 9.31 mL/min/kg and 15.77 mL/min/kg | ClELIMINATION (elimination clearance) [3, 10]: 8.17 mL/min/kg and 4.99 mL/min/kg and 12.61 mL/min/kg and 7.34 mL/min/kg and 13.11 mL/min/kg and 11.54 mL/min/kg and 5.75 mL/min/kg and 5 mL/min/kg | T1/2(BETA) (elimination half-life) [3, 10]: 60 min and 67 min and 57 min and 56 min and 40 min and 47 min and 54 min | VTOTAL (total apparent volume of distribution) [3, 10]: 0.447 L/kg and 0.342 L/kg and 0.893 L/kg and 0.476 L/kg and 0.806 L/kg and 0.499 L/kg and 0.293 L/kg and 0.346 L/kg | duration of inotropic and chronotropic actions ([4]; NAPADE-HCl 60 mg/kg IV): 50 to 90 min | duration of significantly increased myocardial force ([4]; NAPADE-HCl 60 mg/kg IV, compared to the control group): 90 min | duration of significantly increased heart rate ([4]; NAPADE-HCl 60 mg/kg IV, over control): 50 min | time of peak effects (inotropic and chronotropic) [4, 9]: 15 min | maximum increase in heart rate over baseline ([4]; NAPADE-HCl 60 mg/kg, 15-minute IV infusion, mean ± SEM): 22.2±4.4 percent over baseline | maximum increase in myocardial force over baseline ([4]; NAPADE-HCl 60 mg/kg, 15-minute IV infusion, right ventricular, mean ± SEM): 48.9±10 percent over baseline | effect on blood pressure (hypotensive effect) ([4]; NAPADE, result in words): lacks significant hypotensive effects; also recorded: small and statistically insignificant changes in blood pressure; also recorded: without significant changes in systemic arterial pressure | effect on heart rate (chronotropic effect) ([4]; NAPADE, result in words): positive chronotropic effect; also recorded: significant increases in myocardial force and heart rate; also recorded: significant positive inotropic and chronotropic actions | effect on myocardial force of contraction (inotropic effect) ([4]; NAPADE, result in words): positive inotropic effects; also recorded: very significant increase in myocardial force of contraction; also recorded: significant increases in myocardial force; also recorded: significant positive inotropic and chronotropic actions

SMILES: CCN(CC)CCNC(=O)c1ccc(N)cc1 [procainamide, Procainamide]
effect on blood pressure (hypotensive effect) [5]: exhibits hypotensive effects | effect on heart rate [5]: decreases the heart rate | effect on force of contraction of the heart muscle (inotropic effect) [5]: decreases the force of contraction of the heart muscle; also recorded: negative inotropic effect

SMILES: CCN(CC)CCNC(=O)c1ccc(NC(C)=O)cc1 [NAPA, N-acetylprocainamide]
inotropic action after propranolol pretreatment [6]: negative inotropic action is apparent | effect on blood pressure (hypotensive effect) [5]: exhibiting hypotensive effects | effect on heart rate [5]: decreasing the heart rate | effect on force of contraction of the heart muscle (inotropic effect) [5]: increases the force of contraction of heart muscle; also recorded: positive inotropic effects | elimination half-life ([7]; NAPA in the dog, approximate): approximately six | elimination clearance ([7]; NAPA in the dog): 2.64 ± 0.9 mL/min/kg | apparent volume of distribution (Vtotal) ([7]; NAPA, previous studies): 1.48 ± 0.16 L/kg
